Read-outs that look alike come from different tables or passages of the source.

This is an account of results in patent US12077503B2, “Substituted cyclic amides and their use as herbicides” (FMC CORPORATION, priority 2015, dated 2024).

Type in all cases: in vivo
Assay [1] has as its system blackgrass (Alopecurus myosuroides). As to the kind of experiment: Test A postemergence. The note with it: Alopecurus myosuroides, post-emergence, 240 h; for pest or weed control at 125 g/ha: 125 g ai/ha; for pest or weed control at 500 g/ha: 500 g ai/ha. A digest of the protocol:
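Greenhouse, ~10 d after spray; visual injury vs untreated controls, 0 = no effect, 100 = complete control. Preemergence: directed soil spray over planted seeds. Postemergence: plants 2–10 cm, 1–2 leaf stage. Loam/sand blend. Compound in non-phytotoxic solvent with surfactant.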

The test system of assay [2] is barnyardgrass (Echinochloa crus-galli). As to the kind of experiment: Test B flooded paddy test. The note with it: Echinochloa crus-galli, 250 g ai/ha, Flood, read-out: Barnyardgrass plant response rating. A digest of the protocol:
(§1)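 Flooding to 3 cm over soil accompanied treatment, which consisted of adding compound to the standing water around 2-leaf plants; depth was then maintained. Visual assessment versus controls followed at 13 to 15 d (scale 0–100, 0 meaning no effect).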

Assay [3] concerns ducksalad (Heteranthera limosa). Put plainly: Test B flooded paddy test. The note with it: Heteranthera limosa, 250 g ai/ha, Flood, read-out: Ducksalad plant response rating. A digest of the protocol:
as §1

Another assay deals with rice (Oryra sativa). As to the kind of experiment: Test B flooded paddy test. The note with it: Oryza sativa, 250 g ai/ha, Flood, read-out: Rice plant response rating. A digest of the protocol: as §1
Assay [4] deals with sedge, umbrella (small-flower umbrella sedge, Cyperus difformis). As to the kind of experiment: Test B flooded paddy test. The note with it: Cyperus difformis, 250 g ai/ha, Flood, read-out: Sedge, Umbrella plant response rating. A digest of the protocol:
as §1

[5] abbreviates: postemergence, visual injury on 0 to 100 scale (0 no effect, 100 complete control), approx. 10 d, read-out: Blackgrass plant response rating.
The mark [6] stands for this setting: postemergence, 0 to 100 scale, 0 is no effect, 100 is complete control, read-out: Blackgrass plant response rating.
Where [7] appears, read: 0 to 100 scale where 0 is no effect and 100 is complete control.
Where [8] appears, read: postemergence, visual injury rating after approximately 10 d, read-out: Blackgrass plant response rating (0 to 100 scale, 0 no effect, 100 complete control).
The mark [9] stands for this setting: scale of 0 to 100 where 0 is no effect and 100 is complete control.
[10] abbreviates: Postemergence, visual injury after approximately 10 d, 0 to 100 scale where 0 is no effect and 100 is complete control, read-out: Plant response rating, Blackgrass.
[11] abbreviates: postemergence, visual injury, 0 to 100 scale (0 no effect, 100 complete control), approx. 10 d, read-out: Plant response rating, Blackgrass.
Setting [12] is: postemergence, visual injury vs untreated controls after approx. 10 d, 0 = no effect, 100 = complete control, read-out: Blackgrass plant response rating (0 to 100 scale).

`CC(C)Oc1ccc([C@H]2CNC(=O)[C@@H]2C(=O)Nc2ccc(F)cc2F)cc1` [Compound 1137]: the pest or weed control at 125 g/ha in assay [1] (setting [5]) came out at 0%. Moreover, the pest or weed control at 500 g/ha in assay [1] (setting [6]) came to 0%. Moreover, the pest or weed control at 250 g/ha (in assay [2] (setting [7]); in assay [3] (setting [7]); in the assay with rice (Oryra sativa) (setting [7]); in assay [4] (setting [7])) was 0% throughout.
For `CN1C[C@H](c2cc(F)c(C(F)(F)F)c(F)c2)[C@@H](C(=O)Nc2ccc(F)cc2F)C1=O` [Compound 901], in assay [1] (setting [8]), the pest or weed control at 125 g/ha was determined as 20%. Besides, the pest or weed control at 250 g/ha stood at 60% in assay [2] (setting [9]), 60% in assay [3] (setting [9]), 0% in the assay on rice (Oryra sativa) (setting [9]) and 0% in assay [4] (setting [9]).
With `CC(C)COc1cccc([C@H]2CN(C)C(=O)[C@@H]2C(=O)Nc2ccc(F)cc2F)c1` [Compound 1030], the pest or weed control at 125 g/ha in assay [1] (setting [10]) worked out at 0%. For the same compound, the pest or weed control at 500 g/ha in assay [1] (setting [11]) came to 60%. For the same compound, the pest or weed control at 250 g/ha in assay [2] (setting [7]) was determined as 30%; in assay [3] (setting [7]), 70%; in the assay on rice (Oryra sativa) (setting [7]) it was 0%; in assay [4] (setting [7]), 0%.
`Cc1c(F)cccc1NC(=O)[C@H]1C(=O)N(C)C[C@@H]1c1cccc(COC(F)F)c1` [Compound 874]: the pest or weed control at 125 g/ha in assay [1] (setting [8]) was 60%. Also, the pest or weed control at 250 g/ha is 65% in assay [2] (setting [9]), 100% in assay [3] (setting [9]), 0% with rice (Oryra sativa) (setting [9]) and 0% in assay [4] (setting [9]).
Turning to `CCOc1ccc([C@H]2CN(C)C(=O)[C@@H]2C(=O)Nc2ccc(F)cc2F)cc1` [Compound 905], in assay [1] (setting [8]), the pest or weed control at 125 g/ha came out at 0%. The pest or weed control at 250 g/ha (in assay [2] (setting [9]); in assay [3] (setting [9]); with rice (Oryra sativa) (setting [9]); in assay [4] (setting [9])) was 0% each time.
Take `COc1c(F)ccc([C@H]2CNC(=O)[C@@H]2C(=O)Nc2ccccc2C(F)(F)F)c1Cl` [Compound 891]: the pest or weed control at 125 g/ha in assay [1] (setting [8]) worked out at 0%. Also, the pest or weed control at 250 g/ha in assay [2] (setting [9]) is 0%; in assay [3] (setting [9]), 100%; in the assay with rice (Oryra sativa) (setting [9]), 20%; in assay [4] (setting [9]), 0%.
As to `Cc1cc(F)cc([C@H]2CNC(=O)[C@@H]2C(=O)Nc2ccc(F)c(F)c2F)c1` [Compound 848], the pest or weed control at 125 g/ha in assay [1] (setting [8]) was 0%. Besides, the pest or weed control at 250 g/ha in assay [2] (setting [9]) is 60%; in assay [3] (setting [9]) it was 100%; in the assay with rice (Oryra sativa) (setting [9]), 0%; in assay [4] (setting [9]) it was 0%.
For the compound `CC(=O)Oc1ccc(F)c(NC(=O)[C@H]2C(=O)N(C)C[C@@H]2c2cc(F)cc(F)c2)c1` [Compound 1019], the pest or weed control at 125 g/ha in assay [1] (setting [10]) was found to be 0%. Further, the pest or weed control at 500 g/ha in assay [1] (setting [11]) was found to be 0%. In addition, the pest or weed control at 250 g/ha (in assay [2] (setting [7]); in assay [3] (setting [7]); in the assay with rice (Oryra sativa) (setting [7]); in assay [4] (setting [7])) was 0% throughout.
As to `CN1C[C@H](c2ccc(C#N)cc2)[C@@H](C(=O)Nc2cccc(F)c2F)C1=O` [Compound 1208], the pest or weed control at 125 g/ha in assay [1] (setting [12]) worked out at 0%. Further, in assay [1] (setting [6]), the pest or weed control at 500 g/ha amounted to 0%. Further, the pest or weed control at 250 g/ha in assay [2] (setting [7]) turned out to be 45%; in assay [3] (setting [7]) it was 95%; in the assay with rice (Oryra sativa) (setting [7]) it was 15%; in assay [4] (setting [7]) it was 0%.
As for `CSc1ccccc1NC(=O)[C@H]1C(=O)NC[C@@H]1c1cccc2c1OC(F)(F)O2` [Compound 865], the pest or weed control at 125 g/ha in assay [1] (setting [8]) amounted to 0%. Also, the pest or weed control at 250 g/ha in assay [2] (setting [9]) is 0%; in assay [3] (setting [9]), 60%; in the assay on rice (Oryra sativa) (setting [9]) it was 30%; in assay [4] (setting [9]) it was 30%.
Turning to `COc1cc([C@H]2CN(C)C(=O)[C@@H]2C(=O)Nc2cccc(F)c2F)cc(C(F)(F)F)c1` [Compound 856], in assay [1] (setting [8]), the pest or weed control at 125 g/ha was 60%. Besides, the pest or weed control at 250 g/ha in assay [2] (setting [9]) was determined as 50%; in assay [3] (setting [9]), 75%; in the assay with rice (Oryra sativa) (setting [9]), 0%; in assay [4] (setting [9]), 0%.
As to `O=C1NC[C@H](c2ccc(F)c(OC(F)(F)C(F)(F)Br)c2)[C@H]1C(=O)Nc1cccc(F)c1F` (racemic) [Compound 914], in assay [1] (setting [8]), the pest or weed control at 125 g/ha stood at 0%. The pest or weed control at 250 g/ha in assay [2] (setting [9]) was 0%; in assay [3] (setting [9]) it was 50%; in the assay on rice (Oryra sativa) (setting [9]) it was 15%; in assay [4] (setting [9]) it was 0%.
Consider `COc1ccc([C@H]2CN(C)C(=O)[C@@H]2C(=O)Nc2ccccc2F)cc1OC` [Compound 852], for which, in assay [1] (setting [8]), the pest or weed control at 125 g/ha was determined as 0%. In addition, the pest or weed control at 250 g/ha stood at 40% in assay [2] (setting [9]), 40% in assay [3] (setting [9]), 0% in the assay with rice (Oryra sativa) (setting [9]) and 0% in assay [4] (setting [9]).
Turning to `CN1C[C@H](c2cccc(C3CC3)c2)[C@@H](C(=O)Nc2ccc(F)cc2F)C1=O` [Compound 818], the pest or weed control at 125 g/ha in assay [1] (setting [8]) is 30%. For the same compound, the pest or weed control at 250 g/ha in assay [2] (setting [9]) worked out at 55%; in assay [3] (setting [9]), 80%; in the assay with rice (Oryra sativa) (setting [9]), 0%; in assay [4] (setting [9]), 0%.
Turning to `CCOc1ccc([C@H]2CNC(=O)[C@@H]2C(=O)Nc2ccc(F)cc2F)cc1` [Compound 908], the pest or weed control at 125 g/ha in assay [1] (setting [8]) turned out to be 0%. The pest or weed control at 250 g/ha (in assay [2] (setting [9]); in assay [3] (setting [9]); with rice (Oryra sativa) (setting [9]); in assay [4] (setting [9])) was 0% throughout.
`Cc1ccc([C@H]2CN(C)C(=O)[C@@H]2C(=O)Nc2cccc(F)c2C)cc1Cl` [Compound 1014]: the pest or weed control at 125 g/ha in assay [1] (setting [10]) was 0%. Further, the pest or weed control at 500 g/ha in assay [1] (setting [11]) stood at 50%. The pest or weed control at 250 g/ha came to 100% in assay [2] (setting [7]), 85% in assay [3] (setting [7]), 70% in the assay on rice (Oryra sativa) (setting [7]) and 0% in assay [4] (setting [7]).
As to `CN1C[C@H](c2cccc(F)c2)[C@@H](C(=O)Nc2ccccc2C(F)(F)F)C1=O` [Compound 823], the pest or weed control at 125 g/ha in assay [1] (setting [8]) came to 20%. The pest or weed control at 250 g/ha turned out to be 40% in assay [2] (setting [9]), 90% in assay [3] (setting [9]), 0% in the assay with rice (Oryra sativa) (setting [9]) and 0% in assay [4] (setting [9]).
With `CN1C[C@H](c2ccc(C#N)cc2)[C@@H](C(=O)Nc2ccccc2F)C1=O` [Compound 1207], the pest or weed control at 125 g/ha in assay [1] (setting [12]) is 0%. In addition, the pest or weed control at 500 g/ha in assay [1] (setting [6]) is 0%. Moreover, the pest or weed control at 250 g/ha in assay [2] (setting [7]) was 0%; in assay [3] (setting [7]), 100%; in the assay on rice (Oryra sativa) (setting [7]) it was 0%; in assay [4] (setting [7]) it was 0%.
As to `Cc1cc(F)cc([C@H]2CN(C)C(=O)[C@@H]2C(=O)Nc2ccccc2F)c1` [Compound 850], the pest or weed control at 125 g/ha in assay [1] (setting [8]) was 0%. Further, the pest or weed control at 250 g/ha in assay [2] (setting [9]) is 70%; in assay [3] (setting [9]), 90%; in the assay on rice (Oryra sativa) (setting [9]) it was 0%; in assay [4] (setting [9]), 0%.
On to `N#Cc1cccc(NC(=O)[C@H]2C(=O)NC[C@@H]2c2cccc(C(F)(F)F)c2)c1F` [Compound 829], for which the pest or weed control at 125 g/ha in assay [1] (setting [8]) was 40%. Also, the pest or weed control at 250 g/ha in assay [2] (setting [9]) worked out at 55%; in assay [3] (setting [9]), 70%; with rice (Oryra sativa) (setting [9]), 0%; in assay [4] (setting [9]) it was 0%.
Regarding `CC(C)Oc1ccc([C@H]2CNC(=O)[C@@H]2C(=O)Nc2ccccc2F)cc1` [Compound 1135], in assay [1] (setting [5]), the pest or weed control at 125 g/ha was found to be 0%. Further, in assay [1] (setting [6]), the pest or weed control at 500 g/ha worked out at 0%. Also, the pest or weed control at 250 g/ha was determined as 0% in assay [2] (setting [7]), 40% in assay [3] (setting [7]), 0% in the assay on rice (Oryra sativa) (setting [7]) and 0% in assay [4] (setting [7]).
